# According to article PMC9094701, “Multiple-Allele MHC Class II Epitope Engineering by a Molecular Dynamics-Based Evolution Protocol” (Frontiers in Immunology, 2022):
# Legend:
# IFNγ-producing cells = experiment: IFNγ ELISpot of splenocytes from immunized mice; type: in vivo, C57BL/6 mice; details: for Experimental rank: rank from the ex vivo experiments; for specific IFNγ-producing cells: C57BL/6 mice, two s.c. doses of 50 μg peptide with AddaVax, splenocytes 15 days after last dose, restimulated with the same peptide 18 h, ELISpot, mean
# [1] = test system: MHC II alleles DRB1*01:01, DRB1*03:01, DRB1*04:01 and DRB1*15:01; experiment: Multiple-allele REVEAL score; type: binding, human; details: average of the scores of each allele; Figure 4A
# Description: The 18 designed candidates and the additional controls were synthesized and analysed using the ProImmune REVEAL® MHC-peptide binding assay to determine their level of binding to the MHC II alleles DRB1*01:01, DRB1*03:01, DRB1*04:01 and DRB1*15:01. A multiple-allele score was measured to evaluate if the peptides improved toward multiple alleles ( Figure 4A ). Of the 18 peptides, the peptide […] could not be synthesized by the Prospector PEPscreen® technology. […] None of the peptides, including the controls, were able to trigger a signal for the allele DRB1*03:01 (see Figure 4A ). […]
# A gold-standard method of rate binding experiments against the MHC II alleles was performed with the Proimmune REVEAL® binding assay. The method uses antibody-labelled peptides that emit a signal if native conformations of the complexes are detected. […]
# For the single-allele binding optimization phase, 17 peptides selected were assayed together with the controls against the DRB1*01:01 allele. For the multiple-allele engineering phase, 18 P. vivax engineered epitopes were evaluated for the MHC II alleles DRB1*01:01, DRB1*03:01, DRB1*04:01 and DRB1*15:01. A multiple-allele score was calculated by averaging the scores of each allele, and by weighting each allele based on the their frequencies in the world population. […]
# [2] = target: MHC II (HLA) allele DRB1*01:01 (Homo sapiens, UniProt P01903+P01911, A100R/D57E/F55L/F60I/F76Y/I96L/L162R/M171V/P40L/Q125E/R42F/V115G/Y59C); experiment: ProImmune REVEAL MHC-peptide binding assay; details: score 0-100 by comparison with a control T-cell epitope, 0 and 24 hours, Figure 2E
# [3] = Influenza sequences and PADRE, Table S11
Sequence,Experimental rank (IFNγ-producing cells; [3]),specific IFNγ-producing cells (IFNγ-producing cells),"Experimental rank (IFNγ-producing cells; P. vivax sequences, Table S10)","Multiple-allele REVEAL score, in words [1]","REVEAL binding score, performance in words [2]"
AKFVAAWTLKAAA [reference compound],1,–,–,–,–
DYDVVYWKPLAGIYK,–,228 SFU/10^6 cells,2,–,–
DYTVVYLKPLAGYDH,–,127 SFU/10^6 cells,4,superior to the PADRE epitope,–
DYTVVYLKPLAGYDN,–,54 SFU/10^6 cells,5,–,–
VYDVVYLKPLAGCYK,–,145 SFU/10^6 cells,3,–,–
"YPKYVKQNTLKLAT [Influenza A virus peptide from the Hemagglutinin antigen, reference compound]",3,463 SFU/10^6 cells,–,–,–
DYDVVYLKPLAGMYK [reference compound],–,295 SFU/10^6 cells,1,–,–
YSKYKKQNTLKAAT,2,473 SFU/10^6 cells,–,–,"much superior to the original peptide sequence, and even to the PADRE control"
